Test results taken from PubChem BioAssay (NCI).
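Where inhibition never reached the appropriate level, the endpoint shown equals the highest concentration tested. Otherwise, values were interpolated linearly from a five-concentration, 48-hour dose response in 96-well plates. At the TGI there is no net growth.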

Assays:
Assay in all cases: NCI-60 cell line screen, 48 h
NCI-H460 lung = test system: NCI-H460 lung
OVCAR-3 ovarian = test system: OVCAR-3 ovarian
UACC-257 melanoma = test system: UACC-257 melanoma
ACHN renal = test system: ACHN renal
MOLT-4 leukemia = test system: MOLT-4 leukemia
SK-MEL-5 melanoma = test system: SK-MEL-5 melanoma
SNB-75 CNS = test system: SNB-75 CNS
U251 CNS = test system: U251 CNS
UACC-62 melanoma = test system: UACC-62 melanoma
DLD-1 colon = test system: DLD-1 colon
A549 NSCLC = test system: A549 NSCLC
HT29 colon = test system: HT29 colon
RPMI-8226 leukemia = test system: RPMI-8226 leukemia
NCI-H522 lung = test system: NCI-H522 lung
OVCAR-5 ovarian = test system: OVCAR-5 ovarian
OVCAR-4 ovarian = test system: OVCAR-4 ovarian
CCRF-CEM leukemia = test system: CCRF-CEM leukemia
786-0 renal = test system: 786-0 renal
COLO 205 colon = test system: COLO 205 colon
OVCAR-8 ovarian = test system: OVCAR-8 ovarian
EKVX NSCLC = test system: EKVX NSCLC
M19-MEL melanoma = test system: M19-MEL melanoma
HCT-15 colon = test system: HCT-15 colon
K-562 leukemia = test system: K-562 leukemia
SF-539 CNS = test system: SF-539 CNS
SK-OV-3 ovarian = test system: SK-OV-3 ovarian
DMS 114 small cell lung = test system: DMS 114 small cell lung
MALME-3M melanoma = test system: MALME-3M melanoma
SF-295 CNS = test system: SF-295 CNS
TK-10 renal = test system: TK-10 renal
A498 renal = test system: A498 renal
LOX IMVI melanoma = test system: LOX IMVI melanoma
NCI-H23 lung = test system: NCI-H23 lung
SN12C renal = test system: SN12C renal
IGROV1 ovarian = test system: IGROV1 ovarian
HOP-18 NSCLC = test system: HOP-18 NSCLC
KM20L2 colon = test system: KM20L2 colon
UO-31 renal = test system: UO-31 renal
DMS 273 small cell lung = test system: DMS 273 small cell lung
SK-MEL-28 melanoma = test system: SK-MEL-28 melanoma
SW-620 colon = test system: SW-620 colon
LXFL 529 NSCLC = test system: LXFL 529 NSCLC
SNB-78 CNS = test system: SNB-78 CNS
M14 melanoma = test system: M14 melanoma
HOP-62 NSCLC = test system: HOP-62 NSCLC
HCT-116 colon = test system: HCT-116 colon
SNB-19 CNS = test system: SNB-19 CNS
HL-60(TB) leukemia = test system: HL-60(TB) leukemia
RXF 393 renal = test system: RXF 393 renal
KM12 colon = test system: KM12 colon
SF-268 CNS = test system: SF-268 CNS

## CN(C)CCC(/C=C/c1ccccc1)=N\Nc1ccccc1
NCI-H460 lung
  TGI: 10.7 µM
OVCAR-3 ovarian
  TGI: 6.5 µM
UACC-257 melanoma
  TGI: 9.76 µM
ACHN renal
  TGI: 2.31 µM
MOLT-4 leukemia
  TGI: 15 µM
SK-MEL-5 melanoma
  TGI: 13.1 µM
SNB-75 CNS
  TGI: 13.7 µM
U251 CNS
  TGI: 4.58 µM
UACC-62 melanoma
  TGI: 3.26 µM
DLD-1 colon
  TGI: 12.5 µM
A549 NSCLC
  TGI: 4.21 µM
HT29 colon
  TGI: 15.4 µM
RPMI-8226 leukemia
  TGI: 8.52 µM
NCI-H522 lung
  TGI: 8.98 µM
OVCAR-5 ovarian
  TGI: 3.97 µM
OVCAR-4 ovarian
  TGI: 17.1 µM
CCRF-CEM leukemia
  TGI: 15.2 µM
786-0 renal
  TGI: 11.1 µM
COLO 205 colon
  TGI: 3.7 µM
OVCAR-8 ovarian
  TGI: 23.9 µM
EKVX NSCLC
  TGI: 6.47 µM
M19-MEL melanoma
  TGI: 3.63 µM
HCT-15 colon
  TGI: 2.43 µM
K-562 leukemia
  TGI: 10.5 µM
SF-539 CNS
  TGI: 4.02 µM
SK-OV-3 ovarian
  TGI: 9.8 µM
DMS 114 small cell lung
  TGI: 17.3 µM
MALME-3M melanoma
  TGI: 13.1 µM
SF-295 CNS
  TGI: 2.21 µM
TK-10 renal
  TGI: 4.61 µM
A498 renal
  TGI: 28.2 µM
LOX IMVI melanoma
  TGI: 0.454 µM
NCI-H23 lung
  TGI: 13.9 µM
SN12C renal
  TGI: 11.6 µM
IGROV1 ovarian
  TGI: 16.5 µM
HOP-18 NSCLC
  TGI: 16.6 µM
KM20L2 colon
  TGI: 0.655 µM
UO-31 renal
  TGI: 2.8 µM
DMS 273 small cell lung
  TGI: 6.5 µM
SK-MEL-28 melanoma
  TGI: 3.54 µM
SW-620 colon
  TGI: 2.06 µM
LXFL 529 NSCLC
  TGI: 0.462 µM
SNB-78 CNS
  TGI: 14.7 µM
M14 melanoma
  TGI: 13 µM
HOP-62 NSCLC
  TGI: 8.93 µM
HCT-116 colon
  TGI: 10.8 µM
SNB-19 CNS
  TGI: 14.1 µM
HL-60(TB) leukemia
  TGI: 4.28 µM
RXF 393 renal
  TGI: 18.6 µM
KM12 colon
  TGI: 13.2 µM
SF-268 CNS
  TGI: 10.4 µM
